Experimental findings from patent publication US6592911B2, “(−)-Olivil as antioxidant which is obtained from a new natural source namely Stereospermum personatum” (Council of Scientific and Industrial Research, priority 2001, dated 2003) are described below.

The test in a line: In vitro free radical (DPPH) scavenging antioxidant potency. Format: biochemical. As to conditions: for 50% Radical scavenging concentration of compounds, Concentration: DPPH radical 500 μM in ethanol, tris-HCl buffer pH 7.4, 45 minutes in dark, absorbency at 517 nm, triplicate. Here is the method:
In Vitro Evaluation of Free Radical Scavenging Antioxidant Potency
Antioxidant activity of the compounds was tested for its capacity/potency to scavenge most widely used free radical, 1,1-diphenyl-2-picryl hyrazyl radical (DPPH). […] 200 μl of test compounds were reconstituted to 1 ml in tris-HCl buffer (pH 7.4). Equal volume of 500 μM of DPPH radical dissolved in ethanol was reacted with this. After incubation for 45 minutes in dark, the absorbency at 517 nm was recorded. Percent radical scavenging activity was calculated accordingly. All the readings were taken in triplicate.

Consider `Cc1c(C)c2c(c(C)c1O)CCC(C)(CCCC(C)CCCC(C)CCCC(C)C)O2` (stereo not drawn) [DL α-Tocopherol, reference compound], for which the “50% Radical scavenging concentration of compounds, Concentration” value was 47.80 µg/mL.

On to `COc1cc(C[C@]2(O)CO[C@@H](c3ccc(O)c(OC)c3)[C@@H]2CO)ccc1O` [(−)-Olivil], for which the “50% Radical scavenging concentration of compounds, Concentration” value came out at 22.24 µg/mL. Besides, the “antioxidant activity compared with reference drugs Probucol and alpha-tocopherol” value (comparison in words) is listed as “better than the above mentioned reference drugs”.
